Source: article PMC9604775, “Bioactive Peptides from Skipjack Tuna Cardiac Arterial Bulbs: Preparation, Identification, Antioxidant Activity, and Stability against Thermal, pH, and Simulated Gastrointestinal Digestion Treatments” (Marine Drugs, 2022)
Where a SMILES comes first, the peptide text is derived from it. Where no end group is shown, it is not given here.

How the values were obtained:
[1] = Stability to simulated gastrointestinal digestion (DPPH· scavenging activity); format: in vitro ADME; settings: two-stage model: pepsin 120 min then trypsin 120 min; 0 to 240 min; peptide 2.0 mg/mL; read-out DPPH· scavenging activity
Experimental: The stability of TCP1 to TCP11 from tuna cardiac arterial bulbs was determined according to the previous method with a slight modification. The DPPH· scavenging activity (%) of TCP1 to TCP11 at 2.0 mg/mL were measured at the set conditions to evaluate their stability.
The thermostability of TCP1 to TCP11 at 20, 40, 60, 80, or 100 °C for 60 min was analyzed in water bath. The influences of pH values of 3, 5, 7, 9, or 11 were employed to estimate the acid and alkali stability properties of TCP1 to TCP11 at 25 °C, and the detecting time was set to 60, 120, and 180 min, respectively. The influence of simulate GI digestion on the stability of TCP1 to TCP11 was evaluated by the two-stage digestion model. In short, APs (TCP1 to TCP11) were separately treated with pepsin for 120 min and trypsin for 120 min.

[2] = set-up: method as in 10 sources, ref 24 = [24]; PMID 35127795; doi:10.3389/fnut.2021.813780; 24. Wang J. Wang Y.M. Li L.Y. Chi C.F. Wang B. Twelve antioxidant peptides from protein hydrolysate of Skipjack tuna ( Katsuwonus pelamis ) roe prepared by flavourzyme: Purification, sequence identifi ||| ref 55 = [55]; doi:10.1016/j.jff.2016.06.008; 55. Pan X. Zhao Y.Q. Hu F.Y. Wang B. Preparation and identification of antioxidant peptides from protein hydrolysate of skate (Raja porosa) cartilage J. Funct. Foods 2016 25 220 230 10.1016/j.jff.2016 ||| ref 48 = [48]; PMID 31035632; doi:10.3390/md17050251; 48. Yang X.R. Qiu Y.T. Zhao Y.Q. Chi C.F. Wang B. Purification and characterization of antioxidant peptides derived from protein hydrolysate of the marine bivalve mollusk Tergillarca granosa Mar Drugs ||| ref 15 = [15]; doi:10.1016/j.jff.2018.06.014; 15. Zhao W.H. Luo Q.B. Pan X. Chi C.F. Sun K.L. Wang B. Preparation, identification, and activity evaluation of ten antioxidant peptides from protein hydrolysate of swim bladders of miiuy croaker ( Mi ||| ref 47 = [47]; PMID 35531284; doi:10.3389/fmicb.2022.791248; 47. Sun K. Gao M. Wang Y.Z. Li X.R. Wang P. Wang B. Antioxidant peptides from protein hydrolysate of marine red algae Eucheuma cottonii : Preparation, identification, and cytoprotective mechanisms on ||| ...; settings: literature value; cited from earlier work
[3] = set-up: method as in 10 sources, ref 24 = [24]; PMID 35127795; doi:10.3389/fnut.2021.813780; 24. Wang J. Wang Y.M. Li L.Y. Chi C.F. Wang B. Twelve antioxidant peptides from protein hydrolysate of Skipjack tuna ( Katsuwonus pelamis ) roe prepared by flavourzyme: Purification, sequence identifi ||| ref 43 = [43]; doi:10.1016/j.foodres.2010.02.009; 43. You L. Zhao M. Regenstein J.M. Ren J. Purification and identification of antioxidant peptides from loach ( Misgurnus anguillicaudatus ) protein hydrolysate by consecutive chromatography and electr ||| ref 44 = [44]; doi:10.1016/j.jff.2015.03.045; 44. Chi C.F. Hu F.Y. Wang B. Li T. Ding G.F. Antioxidant and anticancer peptides from protein hydrolysate of blood clam ( Tegillarca granosa ) muscle J. Funct. Foods 2015 15 301 313 10.1016/j.jff.2015 ||| ref 42 = [42]; PMID 35621976; doi:10.3390/md20050325; 42. Sheng Y. Qiu Y.T. Wang Y.M. Chi C.F. Wang B. Novel antioxidant collagen peptides of Siberian sturgeon ( Acipenser baerii ) cartilages: The preparation, characterization, and cytoprotection of H 2 ||| ref 45 = [45]; PMID 23411302; doi:10.1016/j.foodchem.2012.12.002; 45. Wang B. Li L. Chi C.F. Ma J.H. Luo H.Y. Xu Y.F. Purification and Characterization of a novel antioxidant peptide derived from blue mussel ( Mytilus edulis ) protein hydrolysate Food Chem. 2013 138 ||| ...; settings: literature value; cited from earlier work
[4] = set-up: method as in 10 sources, ref 51 = [51]; doi:10.1016/j.jff.2015.04.042; 51. Cai L. Wu X. Zhang Y. Li X. Ma S. Li J. Purification and characterization of three antioxidant peptides from protein hydrolysate of grass carp ( Ctenopharyngodon idella ) skin J. Funct. Foods 2015 ||| ref 42 = [42]; PMID 35621976; doi:10.3390/md20050325; 42. Sheng Y. Qiu Y.T. Wang Y.M. Chi C.F. Wang B. Novel antioxidant collagen peptides of Siberian sturgeon ( Acipenser baerii ) cartilages: The preparation, characterization, and cytoprotection of H 2 ||| ref 24 = [24]; PMID 35127795; doi:10.3389/fnut.2021.813780; 24. Wang J. Wang Y.M. Li L.Y. Chi C.F. Wang B. Twelve antioxidant peptides from protein hydrolysate of Skipjack tuna ( Katsuwonus pelamis ) roe prepared by flavourzyme: Purification, sequence identifi ||| ref 48 = [48]; PMID 31035632; doi:10.3390/md17050251; 48. Yang X.R. Qiu Y.T. Zhao Y.Q. Chi C.F. Wang B. Purification and characterization of antioxidant peptides derived from protein hydrolysate of the marine bivalve mollusk Tergillarca granosa Mar Drugs ||| ref 43 = [43]; doi:10.1016/j.foodres.2010.02.009; 43. You L. Zhao M. Regenstein J.M. Ren J. Purification and identification of antioxidant peptides from loach ( Misgurnus anguillicaudatus ) protein hydrolysate by consecutive chromatography and electr ||| ...; settings: literature value; cited from earlier work
[5] = set-up: method as in 5 sources, ref 41 = [41]; doi:10.1016/j.procbio.2022.01.008; 41. Wang Y.M. Li X.Y. Wang J. He Y. Chi C.F. Wang B. Antioxidant peptides from protein hydrolysate of skipjack tuna milt: Purification, identification, and cytoprotection on H 2 O 2 damaged human umbi ||| ref 44 = [44]; doi:10.1016/j.jff.2015.03.045; 44. Chi C.F. Hu F.Y. Wang B. Li T. Ding G.F. Antioxidant and anticancer peptides from protein hydrolysate of blood clam ( Tegillarca granosa ) muscle J. Funct. Foods 2015 15 301 313 10.1016/j.jff.2015 ||| ref 20 = [20]; doi:10.1016/j.jff.2014.10.027; 20. Chi C.F. Wang B. Wang Y.M. Zhang B. Deng S.G. Isolation and characterization of three antioxidant peptides from protein hydrolysate of bluefin leatherjacket ( Navodon septentrionalis ) heads J. Fu ||| ref 48 = [48]; PMID 31035632; doi:10.3390/md17050251; 48. Yang X.R. Qiu Y.T. Zhao Y.Q. Chi C.F. Wang B. Purification and characterization of antioxidant peptides derived from protein hydrolysate of the marine bivalve mollusk Tergillarca granosa Mar Drugs ||| ref 39 = [39]; PMID 31430875; doi:10.3390/antiox8080318; 39. Zhang L. Zhao G.X. Zhao Y.Q. Qiu Y.T. Chi C.F. Wang B. Identification and active evaluation of antioxidant peptides from protein hydrolysates of skipjack tuna ( Katsuwonus pelamis ) head Antioxida; settings: literature value; cited from earlier work

| Molecule | EC50 O2^−· [2] | EC50 DPPH· [3] | EC50 HO· [4] | also measured |
| --- | --- | --- | --- | --- |
| CC(C)C[C@H](NC(=O)CN)C(=O)N[C@@H](CC(N)=O)C(=O)O [TCP10, Gly-Leu-Asn] (H-Gly-Leu-Asn-OH) | – | – | – | Declined percentage of DPPH· scavenging activity after simulated GI digestion [1]: 3.15% |
| EGPFGPEG [literature antioxidant peptide from redlip croaker scales] | 470 µg/mL | 370 µg/mL | – | – |
| EPLSD [literature antioxidant peptide from blood cockle] | 2040 µg/mL | – | – | – |
| EYEA [literature antioxidant peptide from Antarctic krill] | 793 µg/mL | – | 946 µg/mL | – |
| FIMGPY [literature antioxidant peptide from skate cartilages] | 1610 µg/mL | – | – | – |
| FYKA [literature antioxidant peptide from Eucheuma cottonii] | 1910 µg/mL | 2560 µg/mL | – | – |
| GDRGD [TCP11, Gly-Asp-Arg-Gly-Asp] | – | – | – | Declined percentage of DPPH· scavenging activity after simulated GI digestion [1]: 2.65% |
| GEEGD [TCP5, Gly-Glu-Glu-Gly-Asp] | – | – | – | Declined percentage of DPPH· scavenging activity after simulated GI digestion [1]: 4.25% |
| GEGQR [TCP8, Gly-Glu-Gly-Gln-Arg] | – | – | – | Declined percentage of DPPH· scavenging activity after simulated GI digestion [1]: 4.21% |
| GFIGPTE [literature antioxidant peptide from redlip croaker scales] | 740 µg/mL | 450 µg/mL | – | – |
| GFYAA [literature antioxidant peptide from Miichthys miiuy swim bladders] | 3030 µg/mL | – | – | – |
| GHHAAA [literature antioxidant peptide from tuna milts] | – | – | – | EC50 ABTS^+· [5]: 1120 µg/mL |
| GPEGPMGLE [literature antioxidant peptide from redlip croaker scales] | 620 µg/mL | 590 µg/mL | 450 µg/mL | – |
| GVPLT [literature antioxidant peptide from Navodon septentrionalis heads] | – | – | – | EC50 ABTS^+· [5]: 3124 µg/mL |
| IELFPGLP [literature antioxidant peptide from Siberian sturgeon cartilages] | – | 1380 µg/mL | 1630 µg/mL | – |
| LKQELEDLLEKQE [literature antioxidant peptide from Pacific oyster] | – | – | 46 µg/mL | – |
| NADFGLNGLEGLA [literature antioxidant peptide from giant squid] | – | – | 612 µg/mL | – |

| Molecule | EC50 O2^−· [2] | EC50 DPPH· [3] | EC50 HO· [4] | also measured |
| --- | --- | --- | --- | --- |
| NGLEGLK [literature antioxidant peptide from giant squid] | 420 µg/mL | – | – | – |
| PSYV [literature antioxidant peptide from pond loach meat] | – | 2640 µg/mL | 2640 µg/mL | – |
| PYGAKG [literature antioxidant peptide from S. niphonius skins] | 800 µg/mL | – | – | – |
| QAEP [literature antioxidant peptide from tuna roes] | 2916 µg/mL | – | – | – |
| QDHKA [literature antioxidant peptide from tuna milts] | – | – | 536 µg/mL | – |
| SLPY [literature antioxidant peptide from Antarctic krill] | – | – | 826 µg/mL | – |
| SVTEV [literature antioxidant peptide from tuna milts] | – | 890 µg/mL | – | EC50 ABTS^+· [5]: 1020 µg/mL |
| TTANIEDRR [literature antioxidant peptide from salmon pectoral fin] | – | 2500 µg/mL | – | – |
| VGGRP [literature antioxidant peptide from grass carp skin] | – | – | 2060 µg/mL | – |
| VPDDD [literature antioxidant peptide from Miichthys miiuy swim bladders] | 4110 µg/mL | – | – | – |
| VRDQY [literature antioxidant peptide from tuna milts] | – | 880 µg/mL | – | EC50 ABTS^+· [5]: 1040 µg/mL |
| WLDPDG [literature antioxidant peptide from T. granosa] | – | – | 1540 µg/mL | – |
| WPPD [literature antioxidant peptide from blood cockle (T. granosa)] | 460 µg/mL | 360 µg/mL | 380 µg/mL | EC50 ABTS^+· [5]: 540 µg/mL |
| YAVT [literature antioxidant peptide from Eucheuma cottonii] | 560 µg/mL | – | – | – |
| YGPM [literature antioxidant peptide from Scomberomorous niphonius skins] | 730 µg/mL | – | – | EC50 ABTS^+· [5]: 820 µg/mL |
| YPPAK [literature antioxidant peptide from Mytilus edulis] | 72 µg/mL | 2620 µg/mL | 228 µg/mL | – |
| YSKT [literature antioxidant peptide from Eucheuma cottonii] | – | 1710 µg/mL | – | – |
